Data reported in patent publication US20250186436A1 (4E Therapeutics, Inc., priority 2021, published 2025).
Like-named read-outs stand apart in the source and are kept apart here.

Tests used:
[1] = biological target: T1, recombinant full-length human kinase MNK1 (Homo sapiens, UniProt Q9BUB5); assay: MNK1 radiometric kinase activity assay; format: biochemical
T1 construct: the recombinant full-length human kinase MNK1; made in house; host or cells: insect cells

[2] = tested on: eIF4E phosphorylation at Serine 209 in HEK 293 cells; assay: eIF4E phosphorylation in HEK 293 cells (phospho-specific antibody, fluorescent plate reader); format: cell-based; conditions: Homo sapiens, HEK293; eIF4E phosphorylation at Serine 209, 2 hours exposure; read-out: HEK 293 cell;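 note: Well-level p-eIF4E immunofluorescence normalized to DAPI signal, expressed as percent eIF4E phosphorylation, with IC50 derived from concentration-response curves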
[3] = biological target: T2, recombinant full length human kinase MNK2 (Homo sapiens, UniProt Q9HBH9); assay: MNK2 radiometric kinase activity assay; format: biochemical
T2 construct: the recombinant full length human kinase MNK2; made in house; host or cells: insect cells

[4] = Liver microsome stability; conditions: mouse, liver microsomes
P-gp (human MDR1, ABCB1) = assay: MDCK-MDR1 permeability (blood-brain barrier permeability); conditions: dog
[5] = radiometric activity assay, read-out: MNK1
[6] = radiometric activity assay, read-out: MNK2

T2 sequence (Q9HBH9 whole entry): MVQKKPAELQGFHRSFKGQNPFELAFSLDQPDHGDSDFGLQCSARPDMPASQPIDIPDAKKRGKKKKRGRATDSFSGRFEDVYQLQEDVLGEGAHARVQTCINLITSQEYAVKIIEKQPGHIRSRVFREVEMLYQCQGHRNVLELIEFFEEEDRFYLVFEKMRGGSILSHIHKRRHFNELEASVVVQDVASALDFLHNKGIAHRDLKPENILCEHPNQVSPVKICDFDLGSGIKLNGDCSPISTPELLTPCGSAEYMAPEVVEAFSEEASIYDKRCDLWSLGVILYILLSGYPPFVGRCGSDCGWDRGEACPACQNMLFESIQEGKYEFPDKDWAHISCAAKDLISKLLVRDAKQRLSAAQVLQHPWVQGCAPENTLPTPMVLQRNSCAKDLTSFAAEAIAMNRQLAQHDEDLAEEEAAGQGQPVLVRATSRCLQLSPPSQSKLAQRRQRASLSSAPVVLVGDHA
T1 sequence (Q9BUB5 whole entry): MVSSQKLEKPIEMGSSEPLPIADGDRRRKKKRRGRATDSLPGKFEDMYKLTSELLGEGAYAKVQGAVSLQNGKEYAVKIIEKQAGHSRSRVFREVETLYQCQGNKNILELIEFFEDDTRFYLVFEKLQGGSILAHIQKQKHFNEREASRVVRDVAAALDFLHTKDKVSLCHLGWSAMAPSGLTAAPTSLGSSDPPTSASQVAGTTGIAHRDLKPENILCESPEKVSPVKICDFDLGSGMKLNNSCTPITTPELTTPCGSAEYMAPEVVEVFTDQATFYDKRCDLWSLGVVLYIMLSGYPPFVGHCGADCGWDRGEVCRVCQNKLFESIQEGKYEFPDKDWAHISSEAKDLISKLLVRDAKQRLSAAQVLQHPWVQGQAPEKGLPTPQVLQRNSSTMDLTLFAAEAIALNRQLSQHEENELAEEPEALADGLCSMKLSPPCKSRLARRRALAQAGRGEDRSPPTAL

SMILES | IC50 [1, 5] | IC50 [3, 6] | half-life [4] | Papp A→B at 5 uM (P-gp (human MDR1, ABCB1)) | Papp B→A at 5 uM (P-gp (human MDR1, ABCB1)) | efflux ratio at 5 uM (P-gp (human MDR1, ABCB1)) | IC50 [2] | IC50 [1] | IC50 [3]
Cc1cc(Nc2cc(N)ncn2)c(=O)n2c1C(=O)NC21CC2(CCC2)C1 [4ET-01-009, 6″-((6-aminopyrimidin-4-yl)amino)-8″-methyl-2″H-dispiro[cyclobutane-1,1′-cyclobutane-3′,3″-imidazo[1,5-a]pyridine]-1″,5″-dione] | 0.0131 µM | 0.0008 µM |  |  |  |  | 0.0036 µM |  | 
Cc1cc(Nc2cc(N)ncn2)c(=O)n2c1C(=O)NC21CCC2(CC1)CN2 (centres unmarked) [4ET-01-012, 6″-((6-aminopyrimidin-4-yl)amino)-8″-methyl-2″H-dispiro[aziridine-2,1′-cyclohexane-4′,3″-imidazo[1,5-a]pyridine]-1″,5″-dione] |  |  |  |  |  |  | 0.0571 µM | 0.0279 µM | 0.003 µM
Cc1cc(Nc2cc(N)ncn2)c(=O)n2c1C(=O)NC21CCC2(CCCC2)C1 (centres unmarked) [4ET-01-016, 6″-((6-aminopyrimidin-4-yl)amino)-8″-methyl-2″H-dispiro[cyclopentane-1,1′-cyclopentane-3′,3″-imidazo[1,5-a]pyridine]-1″,5″-dione] | 0.033 µM | 0.0035 µM | 11.3 h | 486 nm/s | 465 nm/s | 1 | 0.0089 µM |  | 
Cc1cc(Nc2cc(N)ncn2)c(=O)n2c1C(=O)NC21CCC2(CCC2)CC1 [4ET-01-019, 6″-((6-aminopyrimidin-4-yl)amino)-8″-methyl-2″H-dispiro[cyclobutane-1,1′-cyclohexane-4′,3″-imidazo[1,5-a]pyridine]-1″,5″-dione] | 0.0439 µM | 0.0042 µM | 4.2 h | 439 nm/s | 719 nm/s | 1.6 | 0.0049 µM |  | 
Cc1cc(Nc2cc(NC(=O)C3CC3)ncn2)c(=O)n2c1C(=O)NC21CCC2(CC1)CN2C(=O)OCc1ccccc1 (centres unmarked) [4ET-03-046] | 0.0498 µM | 0.0017 µM |  |  |  |  | 0.0064 µM |  | 
Cc1cc(Nc2cc(NC(=O)C3CC3)ncn2)c(=O)n2c1C(=O)NC21CCC2(CC1)CN(C(=O)OC(C)(C)C)C2 [4ET-03-048, tert-butyl 6″-((6-(cyclopropanecarboxamido)pyrimidin-4-yl)amino)-8″-methyl-1″,5″-dioxo-1″,5″-dihydro-2″H-dispiro[azetidine-3,1′-cyclohexane-4′,3″-imidazo[1,5-a]pyridine]-1-carboxylate] | 0.145 µM | 0.0052 µM |  |  |  |  | 0.0061 µM |  | 
Cc1cc(Nc2cc(NC(=O)C3(CN)CC3)ncn2)c(=O)n2c1C(=O)NC21CCC2(CC2)CC1 [4ET-03-055, 1-(aminomethyl)-N-(6-((8″-methyl-1″,5″-dioxo-1″,5″-dihydro-2″H-dispiro[cyclopropane-1,1′-cyclohexane-4′,3″-imidazo[1,5-a]pyridin]-6″-yl)amino)pyrimidin-4-yl)cyclopropane-1-carboxamide] | 0.127 µM | 0.0295 µM |  | 30 nm/s | 576 nm/s | 19 | 0.044 µM |  | 
Cc1cc(Nc2cc(NC(=O)C3CC4(C3)CN(C)C4)ncn2)c(=O)n2c1C(=O)NC21CCC2(CC2)CC1 [4ET-03-060, 2-methyl-N-(6-((8″-methyl-1″,5″-dioxo-1″,5″-dihydro-2″H-dispiro[cyclopropane-1,1′-cyclohexane-4′,3″-imidazo[1,5-a]pyridin]-638-yl)amino)pyrimidin-4-yl)-2-azaspiro[3.3]heptane-6-carboxamide] | 0.031 µM | 0.0017 µM |  |  |  |  | 0.0065 µM |  | 
Cc1cc(Nc2cc(NC(=O)C3(CNS(C)(=O)=O)CC3)ncn2)c(=O)n2c1C(=O)NC21CCC2(CC2)CC1 [4ET-03-076, N-(6-((8″-methyl-1″,5″-dioxo-1″,5″-dihydro-2″H-dispiro[cyclopropane-1,1′-cyclohexane-4′,3″-imidazo[1,5-a]pyridin]-638-yl)amino)pyrimidin-4-yl)-1-(methylsulfonamidomethyl)cyclopropane-1-carboxamide] | 0.0375 µM | 0.0122 µM |  |  |  |  |  |  | 

Continued, in another order:

IC50 [1, 5] | IC50 [3, 6] | half-life [4] | Papp A→B at 5 uM (P-gp (human MDR1, ABCB1)) | Papp B→A at 5 uM (P-gp (human MDR1, ABCB1)) | efflux ratio at 5 uM (P-gp (human MDR1, ABCB1)) | SMILES | IC50 [2] | IC50 [1] | IC50 [3]
0.0692 µM | 0.0079 µM | 4.35 h | 290 nm/s | 472 nm/s | 1.6 | Cc1cc(Nc2cc(N)ncn2)c(=O)n2c1C(=O)NC21CC2(CC(F)(F)C2)C1 [4ET-01-017, 6″-((6-aminopyrimidin-4-yl)amino)-3,3-difluoro-8″-methyl-2″H-dispiro[cyclobutane-1,1′-cyclobutane-3′,3″-imidazo[1,5-a]pyridine]-1″,5″-dione] | 0.0416 µM |  | 
0.0418 µM | 0.0041 µM | 0.853 h | 508 nm/s | 667 nm/s | 1.3 | Cc1cc(Nc2cc(N)ncn2)c(=O)n2c1C(=O)NC21CC2(CCCC2)C1 [4ET-01-018, 6″-((6-aminopyrimidin-4-yl)amino)-8″-methyl-2″H-dispiro[cyclopentane-1,1′-cyclobutane-3′,3″-imidazo[1,5-a]pyridine]-1″,5″-dione] | 0.0041 µM |  | 
0.036 µM | 0.003 µM | 0.793 h | 467 nm/s | 707 nm/s | 1.5 | Cc1cc(Nc2cc(N)ncn2)c(=O)n2c1C(=O)NC21CC2(CCCCC2)C1 [4ET-01-020, 6″-((6-aminopyrimidin-4-yl)amino)-8″-methyl-2″H-dispiro[cyclohexane-1,1′-cyclobutane-3′,3″-imidazo[1,5-a]pyridine]-1″,5″-dione] | 0.0043 µM |  | 
0.0165 µM | 0.002 µM | 1.88 h | 504 nm/s | 689 nm/s | 1.4 | Cc1cc(Nc2cc(N)ncn2)c(=O)n2c1C(=O)NC21CCCC2(CC2)C1 (centres unmarked) [4ET-01-042, 6″-((6-Aminopyrimidin-4-yl)amino)-8″-methyl-2″H-dispiro[cyclopropane-1,1′-cyclohexane-3′,3″-imidazo[1,5-a]pyridine]-1″,5″-dione] | 0.0008 µM |  | 
0.131 µM | 0.0121 µM |  |  |  |  | CCOC(=O)C1CC12CCC1(CC2)NC(=O)c2c(C)cc(Nc3cc(NC(=O)C4CC4)ncn3)c(=O)n21 (centres unmarked) [4ET-03-045, ethyl 6″-((6-(cyclopropanecarboxamido)pyrimidin-4-yl)amino)-8″-methyl-1″,5″-dioxo-1″,5″-dihydro-2″H-dispiro [cyclopropane-1,1′-cyclohexane-4′,3″-imidazo[1,5-a]pyridine]-2-carboxylate] | 0.0177 µM |  | 
0.0362 µM | 0.0017 µM |  |  |  |  | Cc1cc(Nc2cc(NC(=O)[C@H]3[C@@H]4CN(C)C[C@@H]43)ncn2)c(=O)n2c1C(=O)NC21CCC2(CC2)CC1 [4ET-03-061, (1R,5S,6r)-3-methyl-N-(6-((8″-methyl-1″,5″-dioxo-1″,5″-dihydro-2″H-dispiro[cyclopropane-1,1′-cyclohexane-4′,3″-imidazo[1,5-a]pyridin]-638-yl)amino)pyrimidin-4-yl)-3-azabicyclo[3.1.0]hexane-6-carboxamide] | 0.0052 µM |  | 
0.0303 µM | 0.0101 µM | 1.24 h | 171 nm/s | 234 nm/s | 1.4 | Cc1cc(Nc2cc(NC(=O)C3(CN(C)C)CC3)ncn2)c(=O)n2c1C(=O)NC21CCC2(CC2)CC1 [4ET-03-081, 1-((dimethylamino)methyl)-N-(6-((8″-methyl-1″,5″-dioxo-1″,5″-dihydro-2″H-dispiro[cyclopropane-1,1′-cyclohexane-4′,3″-imidazo[1,5-a]pyridin]-6″-yl)amino)pyrimidin-4-yl)cyclopropane-1-carboxamide] |  |  | 
